In paper PMC9882606, “Rationally designed inhibitors of the Musashi protein-RNA interaction by hotspot mimicry” (Research Square, 2023):

How the values were obtained:
[1] = Solubility as noted during FP testing; assay type: physicochemical; settings: result in words
Excerpt: We then used this pharmacophore as a template for virtual screening. The 12 top-scoring hits identified from the resulting screen could each be classified into one of three diverse chemotypes (Figure S1). While none of these scaffolds bear any obvious resemblance in chemical structure to a nucleobase pair, the overlap in three-dimensional shape and hydrogen bonding potential between the hotspot pharmacophore and the modeled conformation of each compound is immediately evident. Despite this strong similarity, none of the 12 hit compounds recapitulated all four of the polar groups included in the hotspot pharmacophore, and only three hit compounds matched to three of the polar groups: R12 (Figure 1e), its close analog R4, and R7 (Figure S2).
(§1) Out of concern that R12–7’s activity may be associated with compound aggregation, we elected to continue with optimization of R12–8 (Figure 2b).

MSI1 RRM1 [2] = molecular target: T1, MSI1 RRM1 (Homo sapiens, UniProt O43347); test: Fluorescence polarization (FP) competition assay with fluorescein-labeled RNA; assay type: binding; settings: for inhibition in FP competition assay: MSI1 RRM1, result in words
T1 sequence (O43347 20-110 limits assumed): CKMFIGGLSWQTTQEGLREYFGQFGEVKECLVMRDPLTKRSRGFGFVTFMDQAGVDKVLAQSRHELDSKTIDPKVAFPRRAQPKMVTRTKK
Excerpt: Figure 1: The hotspot mimicry approach. […] (A) The structure of the MSI1 / RNA complex. The RNA (sticks) wraps around the protein (spheres). Two adjacent bases, A106 and G107 (magenta), are buried in a shallow pocket on the protein surface. (B) An interaction map is generated from the RNA in the complex, by collecting deeply buried bases (magenta) and atoms involved in intermolecular hydrogen bonds (acceptors shown in yellow, donors in green). […] Positive values indicate diminished binding when a given base is replaced with an abasic site, showing that A106 and G107 contribute more than the other nearby bases to the binding affinity of this interaction. (E) The hotspot pharmacophore serves as a template for ligand-based screening, searching for compounds that would mimic the three-dimensional features of the pharmacophore. The screen led to the identification of compound R12, which mimics the geometry of the rings and provides three of the four desired hydrogen bonding groups. (F) R12 competes with fluorescein-labeled RNA for MSI1 binding, as observed through a fluorescence polarization assay. […] (G) Superposition of the hotspot pharmacophore back onto the protein structure illustrates the interactions that should be captured by an ideal ligand: stacking against three aromatic sidechains, and four intermolecular hydrogen bonds.
We applied our “hotspot mimicry” approach to the structure of Musashi-1 RRM1 bound to cognate RNA [54], and found a single hotspot pharmacophore derived from an adjacent pair of buried bases, Adenine106 and Guanine107 (Figure 1a). […] This pharmacophore captures both the aromatic stacking and the hydrogen bonding of the RNA hotspot through its inclusion of ring moieties and donor/acceptor positions, respectively (Figure 1c). To test whether these two particular bases indeed serve as a hotspot of the MSI1 RRM1 / RNA interaction, we used a fluorescence polarization (FP) competition assay (see Supporting Methods) to measure the binding affinity of RNA variants that maintained the backbone but lacked individual bases. […] In contrast, introduction of an abasic site at other nearby positions affected binding much less. Confirmation that A106 and G107 serve as hotspot bases of this interaction thus provided experimental evidence supporting the pharmacophore selection from our computational approach.

MSI1/MSI2 = tested on: MSI1/MSI2; set-up: method as in PMID 31217428, PMID 36167829; settings: in vitro; cited from earlier work
MSI2 [3] = molecular target: MSI2 (Homo sapiens, UniProt Q96DH6); test: MS2-TRAP aptamer pull-down reporter assay in HEK293 cells; assay type: cell-based; set-up: HEK293 cells (with a high baseline MSI2 expression); endogenous in cells; host or cells: HEK293; settings: HEK293, 24 h treatment; for total amount of MSI2 in cells: input prior to IP; for amount of Luc mRNA in cells (qPCR): prior to IP
Excerpt: Figure 5: Characterization of R12–8–44–3 in a reporter cell line. […] As a positive control, Ro 08–2750 (aka “Ro”) is also included in these studies. (B) Schematic of reporter assay. HEK293 cells are transfected with a plasmid encoding an arbitrary gene (Luc) with UAG repeats (to recruit MSI2) and MS2 repeats (for pulldown) appended to its 3’ UTR. The same vector also includes FLAG-labeled MS2-BP. Upon anti-FLAG immunoprecipitation (IP), the FLAG-labeled MS2-BP allows purification of the Luc mRNA along with any associated factors. (C) Prior to IP, cells express Luc mRNA to a similar extent irrespective of whether they were treated with DMSO, R12-neg, R12–8–44–3, or Ro. (D) Prior to IP (“input”), MSI2 is detected in all samples to a similar extent (as is KU-86 loading control). After pulldown of Luc mRNA, MSI2 is found associated with the mRNA in cells treated with DMSO or R12-neg, but not in cells that had been treated with R12–8–44–3 or Ro. Representative image is shown; quantification is plotted as the average of 2 independent experiments ± S.E.M. Statistical analysis was performed using unpaired two tailed t-test, with * indicating p<0.05. Uncropped Western blots from this experiment are provided as Figure S8.
To determine whether inhibition of MSI1/MSI2 by R12–8–44–3 would apply in a cellular context, we adapted an aptamer pull-down reporter assay that we previously used to validate candidate Musashi target genes. Briefly, our approach is a variation of the MS2-TRAP (MS2-tagged RNA affinity purification) method, which uses bacteriophage protein MS2-BP to extract from cells any factors that associate with RNAs containing a specific stem-loop structure (MS2) from the phage genome. Here, we designed an mRNA construct that would include a series of MS2 hairpins and also a MSI2 recognition sequence. We transfected this construct into cells that also express FLAG-tagged MS2-BP (a protein unrelated to MSI2). By affinity purification using the FLAG tag, proteins bound to the designed mRNA can be extracted from cells.
To test for inhibition of MSI2 in cells, we transfected HEK293 cells (with a high baseline MSI2 expression), with the pMS2-LUC-3’UTR from our previous studies. This vector appends onto the 3’UTR of an arbitrary gene (in this case luciferase) two key elements: UAG-motifs comprising a MSI2 recognition sequence, and a series of five MS2 hairpins. The same vector also encodes the FLAG-MS2-BP fusion needed for affinity purification (Figure 5b). Cells were then treated with each compound of interest for 24 h, and then the cells were subsequently harvested and used for anti-FLAG immunoprecipitation. […] Using qPCR we evaluated the amount of Luc mRNA in cells treated with R12–8–44–3, R12-neg, or Ro, and found this to be unchanged (Figure 5c).

MSI2 [4] = test: Immunoblot of cellular MSI2 protein levels in PC9 cells; assay type: cell-based, human; settings: PC9, 20 μM compound for 1, 3, 6, 24, or 48 hours
Excerpt: To explore the effect of these MSI2 inhibitors in a cancer-relevant cellular context, we selected two MSI2-dependent cancer cell lines: non-small cell lung cancer cell line PC9 and leukemia cell line K562 [73, 98–101]. Upon treatment of PC9 cells with Ro, R12–8–44–3, or negative control R12-neg, we found at multiple time points that cellular MSI2 protein levels were unchanged (Figure 6a). To confirm target engagement, we therefore adapted the cellular thermal shift assay (CETSA). To determine experimental conditions, we first harvested cells and incubated at increasing temperatures; we then removed aggregated protein by centrifugation and used Western blotting to probe the amount of MSI2 remaining in the soluble fraction (Figure 6b, Figure S9). Having established 49 °C as the midpoint of the transition under these (non-equilibrium) conditions, we then treated cells with our candidate MSI2 inhibitor for 3 h, and heated to 49 °C.
Figure 6: Direct cellular engagement of MSI2 interaction by R12–44–3. (A) Immunoblot from PC9 cells treated with Ro (positive control), R12-neg (negative control), or R12–8–44–3. Cells were treated with 20 μM compound for 1, 3, 6, 24, or 48 hours. MSI2 protein abundance was then quantified and normalized to untreated sample. One representative image is shown; quantification is presented as the average ± S.E.M. from 3 independent replicates. (B) Thermal-induced aggregation of cellular MSI2 in the PC9 cell line. Cells were briefly incubated at temperatures between 40 °C to 67 °C, then centrifuged and the amount of MSI2 remaining in the soluble fraction was quantified by Western blotting. […] One representative image is shown; quantification is presented as the average ± S.E.M. from 3 independent replicates, normalized first to beta-actin and then to DMSO control. […] One representative image is shown; quantification is presented as the average ± S.E.M. from 3 independent replicates, normalized first to beta-actin and then to DMSO control. […]

leukemia/lymphoma models = tested on: leukemia/lymphoma models; set-up: method as in PMID 31217428, PMID 36167829; settings: in vivo leukemia/lymphoma models; cited from earlier work
PC9 cells [5] = test: Clonogenic assay, PC9; assay type: cell-based, human; settings: PC9, 10 μM, 7 days
Experimental: (§2) Figure 7: Cellular characterization of MSI2 inhibition by R12–8–44–3. (A) Quantification of mRNA immunoprecipitation (RIP) results. Cells were treated with 10 μM of the indicated compounds for 8 hours. After immunoprecipitation with anti-MSI2, mRNA targets were quantified. The amount of each target mRNA in the pulldown was calculated relative to the input, and results from all targets were normalized to PTP4A1. Treating cells with R12–8–44–3 disrupted the interaction with all four cognate mRNAs (PTP4A, SMAD3, EGFR, and MSI2). Data are presented as the average ± S.E.M. from at least 3 independent replicates. […] Cells were treated with indicated compounds at two concentrations (5 μM and 20 μM) for 48 hours, then protein levels of relevant MSI2 targets were determined (EGFR, SMAD3, and MSI2). One representative image is shown; quantification is presented as the average ± S.E.M. from at least 3 independent replicates, normalized first to beta-actin and then to DMSO-treated cells. (C) Cell viability dose-response quantified by CellTiter-Blue after 3 days (left) and cell proliferation with 10μM of compounds quantified by clonogenic assay after 7 days (right). […] (D) Cell viability quantified by clonogenic assay of PC9 cell line after 7-day treatment with 2 nM osimertinib (osi alone), osimertinib with 10 μM R12–8–44–3, or osimertinib with 10 μM R12-neg. […]

PC9 cells [6] = test: CellTiter-Blue cell viability, PC9; assay type: cell-based, human; settings: PC9, 3 days, dose-response
Experimental: as §2

MSI1 RRM1 [7] = molecular target: T1, MSI1 RRM1; test: Differential Scanning Fluorimetry (DSF); assay type: binding; settings: increasing compound dose
Excerpt: as §1
To further characterize R12–8–44–3, we applied differential scanning fluorimetry (DSF) as an orthogonal secondary assay. […] While this could be a sign of apparent inhibition occurring through aggregation, there are also legitimate inhibitors that reduce their target protein’s melting temperature. An alternate explanation could simply be that MSI1’s folding landscape is not simply two-state, and that a partially-folded intermediate stabilized by R12–8–44–3 affects the unfolding transition.

Sequence of MSI2 (Homo sapiens, UniProt Q96DH6) (Q96DH6 whole entry): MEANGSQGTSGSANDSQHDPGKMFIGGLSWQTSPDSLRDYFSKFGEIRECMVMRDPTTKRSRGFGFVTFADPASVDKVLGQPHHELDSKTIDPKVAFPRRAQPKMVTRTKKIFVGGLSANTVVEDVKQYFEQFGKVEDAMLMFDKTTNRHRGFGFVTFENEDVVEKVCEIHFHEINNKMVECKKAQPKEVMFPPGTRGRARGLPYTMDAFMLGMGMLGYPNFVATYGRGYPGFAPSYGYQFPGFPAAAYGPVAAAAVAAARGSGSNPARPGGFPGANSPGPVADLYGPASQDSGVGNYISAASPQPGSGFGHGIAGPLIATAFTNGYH

| Structure (SMILES) | solubility [1] | inhibition in FP competition assay (MSI1 RRM1 [2]) | MSI2 purified with reporter mRNA (anti-FLAG pulldown) (MSI2 [3]) | total amount of MSI2 in cells (MSI2 [3]) | amount of Luc mRNA in cells (qPCR) (MSI2 [3]) | cellular MSI2 protein levels (MSI2 [4]) | change of the protein's melting temperature (MSI1 RRM1 [7]) | other results |
| --- | --- | --- | --- | --- | --- | --- | --- | --- |
| Nc1nc(COC(=O)c2cncc(Br)c2)nc2ccccc12 [R12] | low solubility | showed inhibition |  |  |  |  |  |  |
| Cc1cc2nc3c(=O)[nH]c(=O)nc-3n(C)c2cc1C=O [Ro 08–2750, reference compound] |  |  | much less MSI2 is purified | unaffected | unchanged | unchanged |  | inhibition of RNA-binding activity of MSI1/MSI2 (MSI1/MSI2): inhibit the RNA-binding activity of MSI1/MSI2 in vitro; disease burden (leukemia/lymphoma models): reduce disease burden; cell proliferation (clonogenic assay) (PC9 cells [5]): dramatically diminishes cell viability; cell viability (CellTiter-Blue) (PC9 cells [6]): dramatically diminishes cell viability |
| Cc1sc2nc(COC(=O)c3cccc(Cl)c3Cl)nc(N)c2c1C [R12-neg] |  | inactive | does not disrupt MSI2 pulldown | unaffected | unchanged | unchanged |  |  |
| COc1ccc(C(=O)OCc2nc(N)c3c(C)c(C)sc3n2)c(N)c1 [R12–8–44] |  |  |  |  |  |  | monotonically-increasing melting temperature with increasing ligand concentration | improvement in potency over parent compound (MSI1 RRM1 [2]; FP assay, MSI1 RRM1): more than ten-fold improvement in potency |
| COc1ccc(C(=O)OCc2nc(N)c3ccccc3n2)c(N)c1 [R12–8] | superior inhibition and solubility than R12 | superior inhibition and solubility than R12 |  |  |  |  | monotonically increasing stabilization with increasing dose |  |
